Reference: patent US8329675B2, “Inhibitors of fatty acid amide hydrolase” (Infinity Pharmaceuticals, Inc., priority 2006, dated 2012)

These compounds were tested against T1, human FAAH (Homo sapiens, UniProt O00519) (assay: Human FAAH biochemical inhibition assay (AMC arachidonoyl amide fluorescence)). Conditions: Table 1, human FAAH (no asterisk); read-out: Activity (Ki).
T1 construct: host or cells: COS-7 cells, transient transfection; 13,000 g membrane fraction solubilised in 1% Triton X-100
T1 sequence (O00519 1-579): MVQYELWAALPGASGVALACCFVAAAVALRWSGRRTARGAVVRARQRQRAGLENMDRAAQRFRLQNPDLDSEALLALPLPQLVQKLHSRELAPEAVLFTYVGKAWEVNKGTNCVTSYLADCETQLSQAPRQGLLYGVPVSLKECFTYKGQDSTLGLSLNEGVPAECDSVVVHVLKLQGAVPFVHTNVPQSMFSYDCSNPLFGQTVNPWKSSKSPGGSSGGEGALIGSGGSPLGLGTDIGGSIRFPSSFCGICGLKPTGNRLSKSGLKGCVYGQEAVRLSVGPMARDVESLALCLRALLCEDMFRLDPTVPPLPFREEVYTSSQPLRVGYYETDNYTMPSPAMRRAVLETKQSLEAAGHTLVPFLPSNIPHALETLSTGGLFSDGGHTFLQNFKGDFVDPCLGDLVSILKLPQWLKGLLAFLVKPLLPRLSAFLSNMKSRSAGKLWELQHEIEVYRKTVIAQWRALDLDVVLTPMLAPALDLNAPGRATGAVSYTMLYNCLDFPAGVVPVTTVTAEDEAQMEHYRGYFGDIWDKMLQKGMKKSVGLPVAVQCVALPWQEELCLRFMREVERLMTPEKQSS
Protocol: The resulting solution is added into one dish of 30-40% confluent COS-7 cells in a drop-wise manner. The COS-7 cell dish is subsequently incubated for 48 hours. The cells are then harvested.
Harvest procedure: Media was aspirated from the dishes and the cells rinsed with 10 mL PBS. The PBS was removed and 3 mLs of PBS added to the dish. The dish was scraped to resuspend the cells, and the subsequent cell suspension collected into a 15 ml conical tube. The cells were pelleted by centrifugation at 1200 rpm for 5 minutes in a bench top centrifuge. PBS was removed and the cell pellet snap frozen in liquid nitrogen, store at −80 C.
The pellets were dounce homogenized and then sonicated to produce cell extract. The cell extract was subsequently centrifuged at 1000 g to remove cellular debris. The pellet was discarded and the supernatant centrifuged at 13,000 g for 20 minutes. The pellet contained membrane bound FAAH. The supernatant was discarded and the pellet resolubilized.
(2) Re-solubilization: The fraction of interest, (13,000 g, membrane fraction) was re-suspended in re-suspension buffer (20 mM Hepes pH 7.8, 10% v/v Glycerol, 1 mM EDTA, 1% Triton X-100) (2.3 mL re-suspension and the sample incubated on ice for 1 hour and then centrifuged to at 13,000 g remove any particulate matter. The supernatant containing solubilized human FAAH was aliquoted and snap frozen in liquid nitrogen and stored at −80° C. until use.
FAAH reaction buffer: 50 mM Hepes (pH 7.5), 1 mM EDTA, 0.2% Triton X-100.
Human FAAH assay; Experimental Protocol: A 0.1 mg/mL Human FAAH solution is made up in FAAH reaction buffer, and 24 ul pipetted into a 384 well plate. To this is added 1 uL of a 3 fold serially diluted inhibitor from a DMSO stock solution. The FAAH solution and inhibitor are incubated for 30 minutes at room temperature. The FAAH reaction is initiated by the addition of 25 uL of 40 uM AMC Arachidonoyl Amide in FAAH reaction buffer, yielding a final reaction human FAAH preparation concentration of 0.05 mg/ml and AMC-Arachidonoyl substrate concentration of 20 uM, reaction volume 50 uL. The reaction is allowed to proceed for 4 hours at room temperature. […] The microtiter plate in read in the envision plate reader.

Row | Ki [nM] | SMILES
1 | 10 to 1000 | Cc1ccc(B(O)O)cc1Cl [Compound I-33]
2 | 10 to 100 | OB(O)c1cc(F)cc(C(F)(F)F)c1 [Compound I-13]
3 | 10 to 1000 | Cc1ccc(B(O)O)cc1C [Compound I-80]
4 | 10 to 1000 | O=[N+]([O-])c1ccc(B(O)O)cc1 [Compound I-83]
5 | > 1000 | OB(O)c1cccc2cccnc12 [Compound I-112]
6 | < 10 | OB(O)c1ccc(-c2ccccc2)cc1F [Compound I-185]
7 | 10 to 1000 | CC(=O)c1ccc(B(O)O)cc1 [Compound I-85]
8 | < 10 | O=C(NCCc1ccccc1)c1ccc(B(O)O)cc1 [Compound I-123]
9 | 10 to 100 | OB(O)c1cc(F)cc(Cl)c1 [Compound I-18]
10 | > 1000 | CCOc1cc(B(O)O)cc(C(F)(F)F)c1 [Compound I-19]
11 | 10 to 100 | COc1ccc2cc(B(O)O)ccc2c1 [Compound I-184]
12 | > 1000 | COc1cc(Br)cc(B(O)O)c1 [Compound I-17]
13 | 10 to 1000 | OB(O)c1ccc(-c2cccs2)s1 [Compound I-135]
14 | > 1000 | OB(O)c1cncc2ccccc12 [Compound I-62]
15 | 10 to 100 | OB(O)c1cccc(I)c1 [Compound I-2]
16 | 10 to 1000 | OB(O)c1ccc(F)c(OCC(F)(F)F)c1 [Compound I-28]
17 | > 1000 | OB(O)c1cccc(F)c1 [Compound I-71]

Row | Ki [nM] | SMILES
18 | 10 to 1000 | Cc1cc(Cl)cc(B(O)O)c1 [Compound I-20]
19 | 10 to 1000 | Cc1cc(F)cc(B(O)O)c1 [Compound I-14]
20 | 10 to 100 | OB(O)c1cccc(C(F)(F)F)c1 [Compound I-50]
21 | > 1000 | OB(O)c1ccc(O)cc1 [Compound I-74]
22 | < 10 | OB(O)c1ccc(OCc2cccc(Cl)c2)c(Cl)c1 [Compound I-154]
23 | 10 to 100 | Cc1nnc(-c2ccc(B(O)O)cc2)o1 [Compound I-121]
24 | 10 to 100 | CC(C)Cc1ccc(B(O)O)cc1 [Compound I-97]
25 | > 1000 | CCOc1ccc(Br)cc1B(O)O [Compound I-6]
26 | > 1000 | Cc1cccc(B(O)O)c1 [Compound I-79]
27 | > 1000 | OB(O)c1cc(C(F)(F)F)cc(C(F)(F)F)c1 [Compound I-63]
28 | 10 to 1000 | OB(O)c1ccc(Cl)s1 [Compound I-37]
29 | > 1000 | OB(O)c1cccc2[nH]ccc12 [Compound I-100]
30 | 10 to 100 | CCCc1ccc(B(O)O)cc1 [Compound I-58]
31 | > 1000 | COc1cccc(B(O)O)c1 [Compound I-76]
32 | < 10 | OB(O)c1ccc(-c2ccccc2)c(F)c1 [Compound I-194]
33 | < 10 | OB(O)c1ccc(C2CCCC2)cc1 [Compound I-43]

Same assay, conditions: Table 2, human FAAH (no asterisk); read-out: Activity (Ki)

Row | Ki [nM] | SMILES
34 | < 10 | OB(O)c1c(F)cc(Oc2cccc(F)c2)cc1F [II-195]
35 | > 1000 | COc1cccc2c(C(O)O)coc12 [II-38]
36 | 10 to 1000 | Cc1nc2cc(B(O)O)ccc2s1 [II-42]
37 | < 10 | CC1(C)OB(c2ccc(CNc3ccccc3)cc2)OC1(C)C [II-154]
38 | < 10 | OB(O)c1ccc(Cc2ccccc2)cc1 [II-82]
39 | < 10 | OB(O)c1ccc(SCc2ccccc2)cc1 [II-234]
40 | 10 to 100 | OB(O)c1cccc(OCc2ccccc2)c1 [II-316]
41 | > 1000 | CNc1cc(B(O)O)cc(C(=O)O)c1 [II-87]
42 | < 10 | COc1cccc(Oc2ccc(B(O)O)cc2)c1 [II-279]
43 | 10 to 100 | O=C(c1ccc(B(O)O)cc1)N(Cc1ccccc1)c1ccccc1 [II-155]
44 | 10 to 100 | CC1(C)OB(c2ccc(OCc3cnco3)cc2F)OC1(C)C [II-148]
45 | 10 to 1000 | CCCCNC(=O)C(Oc1ccc(B(O)O)cc1)c1ccccc1 (stereo not shown) [II-218]
46 | 10 to 100 | OB(O)c1ccc(COCC23CC4CC(CC(C4)C2)C3)cc1 [II-101]
47 | > 1000 | OB(O)c1ccc(/C=C\c2ccccc2)cc1 [II-189]
48 | 10 to 100 | CN(C)c1ccc(/N=N/c2ccc(B(O)O)cc2)cc1 [II-182]
49 | < 10 | CCOc1ccc(CCOc2ccc(B(O)O)c(F)c2)cc1 [II-50]
50 | < 10 | OB(O)c1ccc(Oc2cccnc2)cc1 [II-293]
51 | < 10 | CCOc1ccc(Oc2ccc(B(O)O)cc2)cc1F [II-251]
52 | < 10 | OB(O)c1ccc(-c2ccc(F)cc2)cc1F [II-306]
53 | 10 to 100 | OB(O)c1ccc(OCCCOc2ccccn2)cc1 [II-120]
54 | 10 to 100 | OB(O)c1cccc(CCOc2ccccc2)c1 [II-121]
55 | < 10 | OB(O)c1ccc(-c2ccccc2F)cc1F [II-305]
56 | < 10 | c1ccc(CCCB(Oc2cccc3cccnc23)c2ccc(Oc3ccccc3)cc2)cc1 [II-54]
57 | 10 to 100 | CN(C)C(=O)c1ccc(Oc2ccc(B(O)O)cc2)cc1 [II-227]
58 | < 10 | O=C(CCCCc1ccccc1)Nc1cccc(CCOc2ccc(B(O)O)c(F)c2)c1 [II-19]
59 | 10 to 100 | COC(=O)C(Oc1ccc(B(O)O)cc1)c1ccccc1 (stereo not shown) [II-224]
60 | < 10 | OB(O)c1ccc(COCc2cccc3ccccc23)cc1 [II-111]
61 | < 10 | OB(O)c1ccc(OCCCc2ccccc2)cc1F [II-156]

Row | Ki [nM] | SMILES
62 | < 10 | OB(O)c1ccc(CNc2ccccc2)cc1 [II-152]
63 | 10 to 100 | CN(C)C(=O)c1cccc(Oc2ccc(B(O)O)cc2)c1 [II-228]
64 | 10 to 1000 | O=C(NCc1ccccc1)C(Oc1ccc(B(O)O)cc1)c1ccccc1 (stereo not shown) [II-217]
65 | < 10 | OB(O)c1ccc(COCc2cc(Cl)cc(Cl)c2)cc1F [II-48]
66 | < 10 | OB(O)c1ccc(CSc2ccccc2)cc1 [II-231]
67 | < 10 | CCCCOc1cccc(Oc2ccc(B(O)O)cc2)c1 [II-243]
68 | > 1000 | CN(C)c1cc(B(O)O)cc(C(=O)O)c1 [II-88]
69 | 10 to 100 | CC(C)(C)OC(=O)Nc1ccc(CCOc2ccc(B(O)O)c(F)c2)cc1 [II-39]
70 | < 10 | Cc1ccc(-c2ccc(B(O)O)c(F)c2)cc1F [II-3]
71 | 10 to 100 | Cc1cccc(COc2ccc(B(O)O)cc2)c1F [II-268]
72 | < 10 | CC(C)c1cccc(Oc2ccc(B(O)O)cc2)c1 [II-246]
73 | < 10 | CC1(C)OB(c2ccc(Oc3cccnc3)cc2F)OC1(C)C [II-150]
74 | 10 to 100 | Cc1ccc(F)c(COc2ccc(B(O)O)cc2)c1Cl [II-266]
75 | < 10 | OB(O)c1ccc(OCCc2ccc(C(F)(F)F)cc2)cc1F [II-52]
76 | < 10 | OB(O)c1ccc(Oc2ccc(C(F)(F)F)c(Cl)c2)cc1 [II-256]
77 | < 10 | OB(O)c1ccc(-c2cccc(F)c2)cc1F [II-11]
78 | > 1000 | OB(O)Cc1ccc(-c2ccccc2)cc1 [II-99]
79 | 10 to 100 | OB(O)c1ccc(-c2cccc(F)c2)c(Cl)c1 [II-20]
80 | < 10 | CC(C)(C)OC(=O)n1cncc1COc1ccc(B2OC(C)(C)C(C)(C)O2)c(F)c1 [II-133]
81 | 10 to 1000 | OB(O)c1ccc2sc3ccccc3c2c1 [II-31]
82 | > 1000 | CN(C)c1cc(Oc2ccc(B(O)O)cc2)cc(Oc2cccc3ccccc23)c1 [II-173]
83 | > 1000 | OB(O)c1ccc(OCc2ccccn2)cc1F [II-175]
84 | < 10 | CCCCOc1ccc(Oc2ccc(B(O)O)cc2)cc1F [II-271]
85 | < 10 | OB(O)c1ccc(Oc2ccc(F)c(F)c2)cc1F [II-210]
86 | < 10 | OB(O)c1ccc(OCCc2ccccc2)c(Cl)c1 [II-57]
87 | < 10 | COc1cccc(CCOc2ccc(B(O)O)c(F)c2)c1 [II-51]
88 | 10 to 1000 | [O-][S+](Cc1ccc(B(O)O)cc1)c1ccccc1 (stereo not shown) [II-232]
